Measurements: patent US20260337231A1, “METHOD FOR PRODUCING CYCLIC PEPTIDE COMPOUND” (CHUGAI SEIYAKU KABUSHIKI KAISHA, priority 2023, published 2026)

What was measured:
[1] = Crystal form after drying under reduced pressure (powder X-ray diffraction); assay type: physicochemical
Description: The amorphous powder of Compound 1 (10.7 mg) was dissolved in 2-propanol (32.1 μL), and about 0.1 mg of the crystal obtained in Example 3-1 was added. Thereafter, heptane ([…]) was added, and the mixture was shaken at room temperature for 3 hours. Furthermore, heptane (21.4 μL) was added, and after shaking at room temperature for 2 hours, heptane (21.4 μL) was added and the mixture was shaken at room temperature for 3 hours. Heptane (21.4 μL) was further added, and the mixture was shaken at room temperature for 15 hours, thereby obtaining a crystal (form E) of compound 1. Single crystal X-ray structural analysis was performed on the obtained crystal (Example 4-8), and it was confirmed to be a 2-propanol/heptane/water solvate. […] The obtained crystal (form E) was dried under reduced pressure, and powder X-ray diffraction measurement was performed (Example 4-3).
The amorphous powder of Compound 1 (9.0 mg) was dissolved in ethanol (27.0 μL), heptane (27.0 μL) was added, and the mixture was shaken at room temperature for 4 minutes. About 0.1 mg of the crystal obtained in Example 3-4 was added, and the mixture was shaken at room temperature for 1 minute to obtain a crystal of compound 1. Single crystal X-ray structural analysis was performed (Example 4-9), confirming that the obtained crystal is an ethanol/water solvate crystal (form H). […] The obtained crystal (form H) was dried under reduced pressure, and powder X-ray diffraction measurement was performed (Example 4-3).
The amorphous powder of Compound 1 (10.9 mg) was dissolved in ethyl acetate (32.7 μL), heptane (32.7 μL) was added, and the mixture was shaken at room temperature for 4 minutes. About 0.1 mg of the crystal obtained in Example 3-5 was added, and the mixture was shaken at room temperature for 1 minute, thereby obtaining a crystal of compound 1. Single crystal X-ray structural analysis was performed (Example 4-9), confirming that the obtained crystal is an ethyl acetate/water solvate crystal (form C). […] The obtained crystal (form C) was dried under reduced pressure, and powder X-ray diffraction measurement was performed (Example 4-3).
The crystal (form A, 6.8 mg) of compound 1 obtained in Example 3-8 was dissolved in dimethyl sulfoxide (0.12 mL), and the mixture was shaken and stirred at room temperature for 13 days. Furthermore, water (1 μL) was added and the mixture was stirred at room temperature for 34 days to obtain a crystal of compound 1. The obtained crystal was confirmed to be a dimethyl sulfoxide/water solvate crystal (form L) by single crystal X-ray structural analysis (Example 4-8). […] Powder X-ray diffraction measurement (Example 4-3) on the crystal obtained by performing the same procedure confirmed that the form L is a solvate crystal that is amorphized by drying under reduced pressure.
To the crystal (form B, 45.8 mg) of compound 1, propylene glycol (0.12 mL) was added, and the mixture was stirred at room temperature for 5 minutes. Furthermore, propylene glycol (0.020 mL) was added, and the mixture was stirred at 40° C. for 5 minutes. Thereafter, propylene glycol (0.070 mL) was added, the mixture was stirred at 40° C. for 5 minutes and further allowed to stand still for 5 hours. Propylene glycol (0.070 mL) was further added, and the mixture was stirred at 35° C. for overnight. Then, propylene glycol (0.070 mL) was added and the mixture was stirred for about 1 minute to obtain a wet powder of compound 1. […]

[2] = Thermogravimetry-differential thermal analysis (TG-DTA); assay type: physicochemical; settings: 10° C./min, nitrogen, at 157° C., Example 3-17
Description: The thermogravimetry-differential thermal analysis (TG-DTA) for Example 3-8, Example 3-9, Example 3-12, Example 3-13, Example 3-17, and Example 3-19 was performed under the following conditions. • Measurement apparatus: STA7200RV+AS-3T (manufactured by Hitachi High-Tech Science Corporation) • Measurement range: 30 to 350° C. • Heating rate: 10° C./min • Atmosphere: nitrogen • Measurement: The sample was weighed in an open aluminum pan and covered with a mesh to perform the measurement.

| SMILES | transformation after drying under reduced pressure ([1]; drying under reduced pressure) | further results |
| --- | --- | --- |
| CCC[C@H]1C(=O)N[C@@H]([C@@H](C)CC)C(=O)N2CCC[C@H]2C(=O)N(C)[C@H]2C/C=C\CCN(C2=O)[C@@H](Cc2ccc(C(F)(F)F)cc2)C(=O)N(C)CC(=O)N[C@@H](CCc2ccc(C(F)(F)F)c(OC)c2)C(=O)N2C[C@H](OCC)C[C@H]2C(=O)N(C)C2(CCC2)C(=O)N(C)[C@@H](C2CCCC2)C(=O)N(C)[C@H](C(=O)N(C)C)CC(=O)N1C [form C] | transformed into the hydrate crystal (form B) |  |
| CCC[C@H]1C(=O)N[C@@H]([C@@H](C)CC)C(=O)N2CCC[C@H]2C(=O)N(C)[C@H]2C/C=C\CCN(C2=O)[C@@H](Cc2ccc(C(F)(F)F)cc2)C(=O)N(C)CC(=O)N[C@@H](CCc2ccc(C(F)(F)F)c(OC)c2)C(=O)N2C[C@H](OCC)C[C@H]2C(=O)N(C)C2(CCC2)C(=O)N(C)[C@@H](C2CCCC2)C(=O)N(C)[C@H](C(=O)N(C)C)CC(=O)N1C [form E] | transformed into the hydrate crystal (form A) |  |
| CCC[C@H]1C(=O)N[C@@H]([C@@H](C)CC)C(=O)N2CCC[C@H]2C(=O)N(C)[C@H]2C/C=C\CCN(C2=O)[C@@H](Cc2ccc(C(F)(F)F)cc2)C(=O)N(C)CC(=O)N[C@@H](CCc2ccc(C(F)(F)F)c(OC)c2)C(=O)N2C[C@H](OCC)C[C@H]2C(=O)N(C)C2(CCC2)C(=O)N(C)[C@@H](C2CCCC2)C(=O)N(C)[C@H](C(=O)N(C)C)CC(=O)N1C [form H] | transformed into the hydrate crystal (form B) |  |
| CCC[C@H]1C(=O)N[C@@H]([C@@H](C)CC)C(=O)N2CCC[C@H]2C(=O)N(C)[C@H]2C/C=C\CCN(C2=O)[C@@H](Cc2ccc(C(F)(F)F)cc2)C(=O)N(C)CC(=O)N[C@@H](CCc2ccc(C(F)(F)F)c(OC)c2)C(=O)N2C[C@H](OCC)C[C@H]2C(=O)N(C)C2(CCC2)C(=O)N(C)[C@@H](C2CCCC2)C(=O)N(C)[C@H](C(=O)N(C)C)CC(=O)N1C [form L] | amorphized |  |
| CCC[C@H]1C(=O)N[C@@H]([C@@H](C)CC)C(=O)N2CCC[C@H]2C(=O)N(C)[C@H]2C/C=C\CCN(C2=O)[C@@H](Cc2ccc(C(F)(F)F)cc2)C(=O)N(C)CC(=O)N[C@@H](CCc2ccc(C(F)(F)F)c(OC)c2)C(=O)N2C[C@H](OCC)C[C@H]2C(=O)N(C)C2(CCC2)C(=O)N(C)[C@@H](C2CCCC2)C(=O)N(C)[C@H](C(=O)N(C)C)CC(=O)N1C [form M] |  | transformation after drying under reduced pressure ([1]; dried under reduced pressure at room temperature for overnight): transformed into a form N crystal |
| CCC[C@H]1C(=O)N[C@@H]([C@@H](C)CC)C(=O)N2CCC[C@H]2C(=O)N(C)[C@H]2C/C=C\CCN(C2=O)[C@@H](Cc2ccc(C(F)(F)F)cc2)C(=O)N(C)CC(=O)N[C@@H](CCc2ccc(C(F)(F)F)c(OC)c2)C(=O)N2C[C@H](OCC)C[C@H]2C(=O)N(C)C2(CCC2)C(=O)N(C)[C@@H](C2CCCC2)C(=O)N(C)[C@H](C(=O)N(C)C)CC(=O)N1C [form N] |  | weight reduction [2]: about 11% |
